{"source": "patent US12384751B2", "about": "“Allosteric activators of the ALPHA1A-adrenergic receptor” (The Cleveland Clinic Foundation, priority 2019, dated 2025)", "key": {"Pharmacokinetics in mice": {"assay": "Pharmacokinetics in mice", "assay_type": "in vivo, mouse", "details": "as determined by PK", "procedure": "Pharmacokinetics: Mice are dosed for each identified candidate compound via oral gavage and accessed for a three-arm PK study in C57BL/6 mice at 0, 15 min, 30 min, 1 hr, 3 hr, 6 hr, 12 hr, 24 hr, and 48 hrs. Three groups of […] (N=3 per time point) are administered a PO dose of the identified compound of interest and following completion of the PK study, terminal blood plasma samples and brain tissue samples are collected at the time points to determine in vivo BBB penetrance. Parameters tested can include absorption, bioavailability, volume distribution, metabolism, Cmax, tmax, concentration, elimination rate and half-life, and clearance."}, "[1]": {"assay": "Blood pressure in APP (London Mutation) AD mice and WT controls", "assay_type": "in vivo, mouse", "details": "40 mg/kg/bw daily"}, "[2]": {"tested_on": "3×TG Alzheimer's Disease (AD) mouse model", "assay": "Smart Cage locomotor activity in AD mice", "assay_type": "in vivo", "details": "48 hours"}, "[3]": {"tested_on": "3×TG Alzheimer's Disease (AD) mouse model", "assay": "Tone-induced fear conditioning in 3×TG AD mice", "assay_type": "in vivo", "procedure": "(§1) AD mice were first randomized and sorted into control or treatment groups. […] 14 AD mice from each treatment group received Compound 3 in the drinking water (2.611 mg/kg/bw) to deliver a daily dose near the peak potentiation of the cAMP response in the brain at 10^−8M based upon the PAM assay and pharmacokinetics. This was achieved by adding Compound 3 to the drinking water at 32 uM, assuming the mice drink 6 ml/day, with only 10% of bioavailable drug reaching the brain. The drug was administered in the drinking water for 10 months, starting at age 2 months, then subjected to either different cognitive behavioral tests or electrophysiology at age 12 months to maximize the manifestations of AD symptoms in these mice. Mice are maintained on the drug for the duration of the studies and blinded to the operator."}, "[4]": {"tested_on": "3×TG Alzheimer's Disease (AD) mouse model", "assay": "Shortened Barnes Maze in 3×TG AD mice", "assay_type": "in vivo", "procedure": "as §1\nBarnes Maze. The Barnes maze is used to assess spatial learning and memory and consists of a white, flat, circular platform elevated above ground with 40 holes, under which one escape box is located. Three visual cues are placed surrounding the maze and their locations in relation to the escape box and remain constant. Two floodlights and four fans above the maze provide aversion. […] At the start of each trial, a mouse is placed in the center of the maze under a holding chamber for 30 seconds. When the chamber is lifted, the mouse is allowed up to 300 seconds to enter the escape box. […] […] The procedure for the memory trials is the same as learning, except the mice are allowed only one attempt to solve the maze each day. Data includes the time to solve, number of errors made, and distance traveled. Errors are defined as when a mouse poked more than three-quarters of its head into any hole other than the appropriate escape hole. Distance traveled is measured using ANY-MAZE software."}}, "data": [{"smiles": "CC(C)Cc1c(OCC2=NCCN2)cccc1N(C)S(C)(=O)=O", "note": "[Compound 3, N-[3-(4,5-Dihydro-1H-imidazol-2-ylmethoxy)-2-isobutyl-phenyl]-N-methyl-methanesulfonamide]", "values": [{"measurement": "CMax time point", "setting": "Pharmacokinetics in mice", "result": "approx. 3 hr"}, {"measurement": "blood pressure, treated vs placebo", "setting": "[1]", "result": "no changes in blood pressure"}, {"measurement": "locomotion assessed by amount of active time", "setting": "[2]", "result": "little effect on locomotion"}, {"measurement": "locomotion assessed by velocity", "setting": "[2]", "result": "little effect on locomotion"}, {"measurement": "velocity after tone (freezing)", "setting": "[3]; female AD mice", "result": "slower movement speed"}, {"measurement": "active time after tone (freezing)", "setting": "[3]; male AD mice", "result": "less active time"}, {"measurement": "time to find the escape hole, day 5 memory test", "setting": "[4]; AD mice, approached significance", "result": "decreased the time to find the escape hole"}, {"measurement": "finding the correct escape hole (number of head pokes)", "setting": "[4]; female AD mice, day 5 probe", "result": "increase the ability of female AD mice to find the correct escape hole"}, {"measurement": "latency to the escape hole during training period", "setting": "[4]; male AD mice, 5 day training", "result": "significantly decrease the latency"}]}]}
